Source: patent US20220331458A1, “AGENTS FOR CLEAVING LABELS FROM BIOMOLECULES IN VIVO” (TAGWORKS PHARMACEUTICALS B.V., priority 2019, published 2022)
Marks after values point to notes of the source that are not given here.

Experiments:
[1] = system: radiolabeled mAb-conjugates; test: In vitro Label release from radiolabeled mAb-TCO-chelate conjugates incubated with Cleaving Agents (SEC); conditions: Label release from TCO derivative 1.8 on trastuzumab, ^111In; 50% mouse plasma in PBS, 37°C, 15-24 h
Experimental: Briefly, mAb solutions in PBS (4 mg/mL final concentration) were added with 15-20 eq of the NHS-derivative (dissolved at 10 mg/mL in DMSO) and the pH was adjusted to 9 with 1M sodium carbonate. The reaction mixtures were incubated at rt in the dark for 2 h then the products were purified by dialysis (20 kDa MW cut-off membranes) in chelex-treated 0.25M NH4OAc pH 5.5.
After 15-24 h incubation the mixtures were analyzed by SEC and the amount of released Label was quantified from the radioactivity elution profile.

[2] = set-up: species or system mice; conditions: female, Balb/C nude, mouse, in vivo
Experimental: Blood samples were withdrawn 5 min before and at various times after Cleaving Agent administration and the radioactivity was measured in a gamma-counter.

decrease of radioactivity circulating in blood [2]: ca. 30%
Compound: O=C(O)CCCC(=O)Nc1cccnc1-c1nnc(-c2ncccc2NC(=O)CCCC(=O)O)nn1 [Compound 2.7, 5,5′-((2,2′-(1,2,4,5-Tetrazine-3,6-diyl)bis(pyridine-3,2-diyl))bis(azanediyl))bis(5-oxopentanoic acid)]
release (%) [1]: 55.3^a %
